# Active and inactive are the calls of the source. The rule behind the calls is not given here.
# Tests used:
# Type in all cases: functional, cell-free
# Oryctolagus cuniculus [1] = organism: Oryctolagus cuniculus; experiment: Anticoagulant activity in New Zealand White rabbit plasma assessed as decrease in fibrinogen level at 1 mM after 3 mins
# Oryctolagus cuniculus [2] = organism: Oryctolagus cuniculus; experiment: Anticoagulant activity in New Zealand White rabbit plasma assessed as prolongation of activated partial thromboplastin time at 1 mM after 1 min
# Oryctolagus cuniculus [3] = organism: Oryctolagus cuniculus; experiment: Anticoagulant activity in New Zealand White rabbit plasma assessed as prolongation of thrombin time at 1 mM incubated for 3 mins followed by thrombin addition
SMILES,Activity (Oryctolagus cuniculus [1]),Activity (Oryctolagus cuniculus [2]),Activity (Oryctolagus cuniculus [3])
CCC/C=C1\OC(=O)C2=C1CC[C@@H]1[C@@H]3CCC4=C(C(=O)OC45[C@H](CCC)[C@@H](CCC)[C@@]54OC(=O)C5=C4CCC=C5)[C@@H]3[C@H]21 (some centres undefined),Active,–,–
CCCCC(=O)[C@]12CC[C@H](C=C1C(=O)OC)[C@@H](CCC)[C@@]21OC(=O)C2=C[C@H]3CC[C@]21OO3,Active,Active,Active
